Assay results from patent publication US12643867B2, “Compositions and uses thereof” (University of Virginia Patent Foundation, priority 2017, dated 2026).

How the values were obtained:
Test in all cases: SILAC LC-MS ATP acyl phosphate probe competition, native kinases in HEK293T
Type in all cases: binding
[1] = target: T1, CDK2 (Cell division protein kinase 2) (Homo sapiens, UniProt P24941); settings: site Lys2; ATP 1 mM; Ketanserin, Ritanserin 100 μM; RF001 1 mM
T1 construct: measured against >50 native kinases quantified in HEK293T soluble proteomes; endogenous in cells; host or cells: HEK293T soluble proteome
Outline: (§1)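 First, HEK293T proteomes at 2 mg/ml in kinase buffer were exposed to compound (heavy) or DMSO (light) for 30 min at 25° C. Next, samples were pooled 1:1 and trypsin/Lys-C digested. Finally, desthiobiotin peptides were enriched on avidin and measured by data-dependent LC-MS/MS.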

[2] = target: T2, CDK5 (Cell division protein kinase 5) (Homo sapiens, UniProt Q00535); settings: site Lys2; ATP 1 mM; Ketanserin, Ritanserin 100 μM; RF001 1 mM
T2 construct: measured against >50 native kinases quantified in HEK293T soluble proteomes; endogenous in cells; host or cells: HEK293T soluble proteome
T2 sequence (Q00535 whole entry): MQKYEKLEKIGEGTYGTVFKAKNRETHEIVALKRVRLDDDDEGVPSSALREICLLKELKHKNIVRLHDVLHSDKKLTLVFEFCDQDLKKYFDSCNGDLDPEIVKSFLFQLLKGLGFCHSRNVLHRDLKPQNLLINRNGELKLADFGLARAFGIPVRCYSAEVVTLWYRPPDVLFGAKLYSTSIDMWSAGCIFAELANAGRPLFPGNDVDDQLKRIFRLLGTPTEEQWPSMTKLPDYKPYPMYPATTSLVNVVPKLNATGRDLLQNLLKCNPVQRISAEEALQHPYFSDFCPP
Outline: as §1

[3] = target: T3, FER (Proto-oncogene tyrosine-protein kinase FER) (Homo sapiens, UniProt P16591); settings: site Lys1 (K591); ATP 1 mM; Ketanserin, Ritanserin 100 μM; RF001 1 mM
T3 construct: measured against >50 native kinases quantified in HEK293T soluble proteomes; endogenous in cells; host or cells: HEK293T soluble proteome
T3 sequence (P16591 whole entry): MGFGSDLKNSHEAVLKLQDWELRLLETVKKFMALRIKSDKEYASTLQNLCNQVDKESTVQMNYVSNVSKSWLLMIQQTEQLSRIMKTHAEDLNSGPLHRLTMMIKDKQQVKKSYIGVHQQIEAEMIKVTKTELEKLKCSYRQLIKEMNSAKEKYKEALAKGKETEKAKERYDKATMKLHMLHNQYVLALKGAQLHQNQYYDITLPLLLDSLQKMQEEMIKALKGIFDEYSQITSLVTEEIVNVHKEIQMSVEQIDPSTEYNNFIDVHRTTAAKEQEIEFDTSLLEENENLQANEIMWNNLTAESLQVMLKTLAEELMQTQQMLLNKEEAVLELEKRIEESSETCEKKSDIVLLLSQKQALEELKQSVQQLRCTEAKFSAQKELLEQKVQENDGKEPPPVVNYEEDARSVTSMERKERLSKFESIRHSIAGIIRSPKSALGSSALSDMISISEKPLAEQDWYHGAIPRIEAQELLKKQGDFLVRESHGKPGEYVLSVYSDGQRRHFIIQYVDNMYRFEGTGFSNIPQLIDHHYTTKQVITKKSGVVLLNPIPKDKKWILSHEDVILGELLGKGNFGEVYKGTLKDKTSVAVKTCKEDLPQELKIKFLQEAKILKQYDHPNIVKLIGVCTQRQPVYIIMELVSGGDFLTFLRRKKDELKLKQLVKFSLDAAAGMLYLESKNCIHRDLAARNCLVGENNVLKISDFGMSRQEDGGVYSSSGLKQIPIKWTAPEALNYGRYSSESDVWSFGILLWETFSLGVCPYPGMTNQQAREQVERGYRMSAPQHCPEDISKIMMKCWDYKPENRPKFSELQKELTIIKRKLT
Outline: as §1

[4] = target: T4, KS6B2 (Ribosomal protein S6 kinase 2) (Homo sapiens, UniProt Q9UBS0); settings: site Lys2; ATP 1 mM; Ketanserin, Ritanserin 100 μM; RF001 1 mM
T4 construct: measured against >50 native kinases quantified in HEK293T soluble proteomes; endogenous in cells; host or cells: HEK293T soluble proteome
T4 sequence (Q9UBS0 whole entry): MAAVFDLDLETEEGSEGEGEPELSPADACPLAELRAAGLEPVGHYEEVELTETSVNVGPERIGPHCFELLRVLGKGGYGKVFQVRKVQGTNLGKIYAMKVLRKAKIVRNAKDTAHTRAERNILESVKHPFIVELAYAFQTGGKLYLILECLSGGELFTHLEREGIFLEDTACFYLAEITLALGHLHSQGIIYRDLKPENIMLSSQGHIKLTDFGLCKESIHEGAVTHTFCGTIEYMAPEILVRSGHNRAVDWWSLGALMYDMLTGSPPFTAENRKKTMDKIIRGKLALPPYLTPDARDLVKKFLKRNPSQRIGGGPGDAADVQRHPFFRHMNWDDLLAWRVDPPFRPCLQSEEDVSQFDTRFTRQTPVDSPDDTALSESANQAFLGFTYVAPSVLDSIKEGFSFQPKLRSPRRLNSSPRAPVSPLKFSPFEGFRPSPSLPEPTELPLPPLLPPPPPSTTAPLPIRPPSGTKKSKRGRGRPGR
Outline: as §1

[5] = target: T5, SLK (CTCL tumor antigen se20-9) (Homo sapiens, UniProt Q9H2G2); settings: site Lys2; ATP 1 mM; Ketanserin, Ritanserin 100 μM; RF001 1 mM
T5 construct: Native kinases; endogenous in cells; host or cells: HEK293T soluble proteome
T5 sequence (Q9H2G2 whole entry): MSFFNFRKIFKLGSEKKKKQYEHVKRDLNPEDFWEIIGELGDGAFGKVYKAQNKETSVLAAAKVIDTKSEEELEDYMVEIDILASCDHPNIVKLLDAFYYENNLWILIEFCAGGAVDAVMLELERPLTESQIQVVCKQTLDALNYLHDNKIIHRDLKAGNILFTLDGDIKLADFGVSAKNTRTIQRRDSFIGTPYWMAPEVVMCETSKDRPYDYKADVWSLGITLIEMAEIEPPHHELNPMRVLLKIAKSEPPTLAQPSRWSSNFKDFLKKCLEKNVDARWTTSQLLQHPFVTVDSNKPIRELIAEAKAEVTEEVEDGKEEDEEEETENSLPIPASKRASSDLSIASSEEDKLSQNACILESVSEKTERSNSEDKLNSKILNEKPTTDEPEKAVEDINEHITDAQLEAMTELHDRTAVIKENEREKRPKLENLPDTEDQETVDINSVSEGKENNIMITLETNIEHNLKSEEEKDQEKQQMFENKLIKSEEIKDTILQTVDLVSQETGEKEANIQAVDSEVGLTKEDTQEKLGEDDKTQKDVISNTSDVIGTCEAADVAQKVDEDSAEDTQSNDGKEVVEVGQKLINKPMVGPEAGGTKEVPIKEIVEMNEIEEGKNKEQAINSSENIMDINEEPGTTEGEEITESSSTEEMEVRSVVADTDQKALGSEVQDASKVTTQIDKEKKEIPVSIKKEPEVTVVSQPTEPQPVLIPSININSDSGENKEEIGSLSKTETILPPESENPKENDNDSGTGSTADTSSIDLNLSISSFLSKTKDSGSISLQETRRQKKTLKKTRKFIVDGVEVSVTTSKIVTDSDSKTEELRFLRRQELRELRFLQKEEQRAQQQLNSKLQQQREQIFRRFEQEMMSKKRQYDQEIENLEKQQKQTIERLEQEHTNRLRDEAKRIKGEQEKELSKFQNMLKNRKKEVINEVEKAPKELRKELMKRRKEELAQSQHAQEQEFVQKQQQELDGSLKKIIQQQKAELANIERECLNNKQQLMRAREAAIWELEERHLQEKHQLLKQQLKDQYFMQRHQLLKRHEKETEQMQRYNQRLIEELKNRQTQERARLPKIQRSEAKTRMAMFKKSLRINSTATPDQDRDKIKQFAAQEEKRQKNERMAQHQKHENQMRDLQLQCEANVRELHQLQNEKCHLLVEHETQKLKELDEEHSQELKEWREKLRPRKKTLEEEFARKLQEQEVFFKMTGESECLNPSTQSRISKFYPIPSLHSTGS
Outline: as §1

[6] = target: T6, STK38 (Serine/threonine-protein kinase 38) (Homo sapiens, UniProt Q15208); settings: site Lys1; ATP 1 mM; Ketanserin, Ritanserin 100 μM; RF001 1 mM
T6 construct: Native kinases; endogenous in cells; host or cells: HEK293T soluble proteome
T6 sequence (Q15208 whole entry): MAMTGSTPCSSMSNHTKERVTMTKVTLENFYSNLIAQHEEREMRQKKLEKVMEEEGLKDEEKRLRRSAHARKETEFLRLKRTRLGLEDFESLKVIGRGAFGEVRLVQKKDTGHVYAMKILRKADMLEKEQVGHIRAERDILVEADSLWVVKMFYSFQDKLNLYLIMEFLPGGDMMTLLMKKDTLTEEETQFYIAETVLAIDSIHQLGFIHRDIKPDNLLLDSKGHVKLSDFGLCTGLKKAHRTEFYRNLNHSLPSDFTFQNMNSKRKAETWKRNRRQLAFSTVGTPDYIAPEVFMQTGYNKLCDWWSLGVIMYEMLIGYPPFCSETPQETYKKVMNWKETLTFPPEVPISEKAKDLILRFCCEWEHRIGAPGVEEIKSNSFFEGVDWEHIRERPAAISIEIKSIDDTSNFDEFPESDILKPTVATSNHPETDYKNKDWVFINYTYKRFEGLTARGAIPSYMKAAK
Outline: as §1

SMILES | SILAC ratio, CDK2 probe-modified peptide [1] | SILAC ratio, CDK5 probe-modified peptide [2] | SILAC ratio, FER probe-modified peptide [3] | SILAC ratio, KS6B2 probe-modified peptide [4] | SILAC ratio, SLK probe-modified peptide [5] | SILAC ratio, STK38 probe-modified peptide [6]
O=C(c1ccc(F)cc1)C1CCN(CCn2c(=O)[nH]c3ccccc3c2=O)CC1 [Ketanserin] | 1.6 | 1.3 | 1.4 | 1.1 | 1.3 | 1.3
Cc1nc2sccn2c(=O)c1CCN1CCC(=C(c2ccc(F)cc2)c2ccc(F)cc2)CC1 [Ritanserin] | 2.9 | 1.9 | 7.9 | 1.4 | 3.0 | 2.0
Fc1ccc(C(=C2CCNCC2)c2ccc(F)cc2)cc1 [RF001, 4-(Bis(4-fluorophenyl)methylene) piperidine] | 0.7 | 1.1 | 1.2 | 1.7 | 1.5 | 1.4
